# In patent publication US7982030B2, “Synthesis of selenium-derivatized nucleosides, nucleotides, phosphoramidites, triphosphates and nucleic acids” (Georgia State University Research Foundation, Inc., priority 2001, dated 2011):
# Molecular target: T1, DNA polymerase (Klenow Fragment) (Escherichia coli, UniProt P00582)
# T1 construct: using a DNA polymerase (Klenow Fragment)
# Assay: terminal extension on a DNA template: substrate recognition by Klenow
# Format: biochemical
# Conditions: 3′-terminal extension on a DNA template
# Experimental: An alternative approach to label RNAs with selenium is based on the RNA 3′-labeling method (FIG. 9). See ref. 33. After a long RNA is prepared by transcription using ordinary NTPs, α-Se-dNTPs is transferred to its 3′-terminus on a DNA template using a DNA polymerase (Klenow Fragment). […] Experiments also reveal that the number of incorporated dNTPs is dependent on the length of the overhanging nucleotides of the template, and the terminal extension reaction giving full-length product with high yields in the presence of high dNTP concentration. The products may be purified by any one of a variety of methods well known in the art, such as for example, preparative anion exchange HPLC, to single nucleotide resolution for RNA as long as 70 nucleotides. (Ref 34). This terminal transfer approach can be very useful for medium size RNAs (up to 80 nucleotides). An analogous approach can be used to prepare Se-DNAs.
# T1 sequence (P00582 324-928): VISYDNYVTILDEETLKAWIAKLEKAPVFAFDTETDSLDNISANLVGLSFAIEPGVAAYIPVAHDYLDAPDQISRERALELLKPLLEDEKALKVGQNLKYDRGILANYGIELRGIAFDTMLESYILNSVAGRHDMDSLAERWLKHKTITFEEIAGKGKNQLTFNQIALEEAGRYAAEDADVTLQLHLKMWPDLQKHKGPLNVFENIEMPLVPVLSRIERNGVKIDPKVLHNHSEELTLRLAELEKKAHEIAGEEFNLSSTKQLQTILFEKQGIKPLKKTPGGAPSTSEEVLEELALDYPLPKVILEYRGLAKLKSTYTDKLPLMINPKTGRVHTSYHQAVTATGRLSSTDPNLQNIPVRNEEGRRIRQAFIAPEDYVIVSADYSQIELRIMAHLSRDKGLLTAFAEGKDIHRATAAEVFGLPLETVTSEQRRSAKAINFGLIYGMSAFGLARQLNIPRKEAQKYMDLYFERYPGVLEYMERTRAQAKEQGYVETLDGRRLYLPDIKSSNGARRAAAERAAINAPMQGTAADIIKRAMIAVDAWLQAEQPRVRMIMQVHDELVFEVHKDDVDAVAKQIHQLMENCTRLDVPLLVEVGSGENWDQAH
smiles,measurement,value
Cc1cn(C2CC(O)C(COP(O)(=[Se])OP(=O)(O)OP(=O)(O)O)O2)c(=O)[nH]c1=O (stereo not drawn) [α-Se-TTP 24],recognition as a substrate by Klenow,recognized α-Se-TTP 24 as a substrate
